{"source": "patent US20150045409A1", "about": "“AMIDE COMPOUND AND USE THEREOF FOR PEST CONTROL” (SUMITOMO CHEMICAL COMPANY, LIMITED, priority 2012, published 2015)", "type_in_all_cases": "in vivo", "key": {"[1]": {"test_system": "adult common house mosquitos", "test": "Spray knockdown test on adult common house mosquitos (Test Examples 5, 6)", "conditions": "active ingredient 0.02% w/v oil solution, 0.5 ml sprayed, counted after 15 minutes", "procedure": "(§1) The formulations of Compounds (2), (7), (48) and (49) of the present invention obtained in Formulation Example 7 were diluted with a mixture solution with a ratio of isopropyl alcohol/deodorized kerosene of 1/9, so as to have a concentration of active ingredient of 0.1% w/v, to prepare a test drug solution.\n(§2) Ten adult common house mosquitos were released in a polyethylene cup (a bottom diameter of 10.6 cm) which was then capped with 16-mesh nylon gauze. The polyethylene cup was placed on the bottom of a test chamber (bottom: 46 cm×46 cm, height: 70 cm). From a height of 30 cm above the upper surface of the polyethylene cup, 0.5 ml of the test drug solution was sprayed using a spray gun (a spraying pressure of 0.4 kg/cm^2). Immediately after spraying, the cup was taken out from the test container, and after 15 minutes, the number of knockdown insects was counted to obtain a knockdown rate. The knockdown rate was calculated by the following equation.\n(§3) Knockdown Rate(%)=(Number of Knockdown Insects/Number of Tested Insects)×100\nas §1, with “Each of the” for “The”, “(19)” for “(2), (7), (48)”, “(40) to (42)” for “(49)”, “was” for “were”, “0.02%” for “0.1%”, “solution. […]” for “solution.”"}, "[2]": {"test_system": "adult houseflies (Musca domestica)", "test": "Filter paper/sucrose bait mortality test on adult houseflies (Test Example 8)", "conditions": "0.7 ml on filter paper with sucrose bait, after 24 hours", "procedure": "(§4) Each of the formulations of Compounds (2) to (6), (8), (12), (15) to (18), (27), (29), (33), (37) to (39), (41), (42) and (45) of the present invention obtained in Formulation Example 15 was diluted with water, so as to have a concentration of active ingredient of 500 ppm, to prepare a test drug solution.\n(§5) On the bottom of a polyethylene cup with a diameter of 5.5 cm, a filter paper of the same size was laid down, and 0.7 ml of the test drug solution was dropped onto the filter paper, then 30 mg of sucrose was uniformly put as bait. Ten adult houseflies (Musca domestica) were released in the polyethylene cup which was then capped."}, "adult houseflies": {"test_system": "adult houseflies", "test": "Spray knockdown test on adult houseflies (Test Examples 3, 4)", "conditions": "Musca domestica, 10 min; active ingredient 0.5% w/v oil solution, 0.5 ml sprayed, counted after 10 minutes; read-out: knockdown rate", "procedure": "as §1, with “Compounds” for “Compounds (2),”, “(7), (46) and” for “(7),”, “(48)” for “(48) and (49)”, “2.0%” for “0.1%”\nas §2, with “houseflies (5 males and 5 females)” for “common house mosquitos”, “0.9” for “0.4”, “10” for “15”\nas §3\nas §1, with “(4), (6), (8), (17) to (19), (28), (29), (33), (40) to (42)” for “(2), (7), (48)”, “(51) to (53)” for “(49)”, “0.5%” for “0.1%”, “solution. The test was performed in the same manner as in Test Example 3.” for “solution.”"}, "[3]": {"test_system": "adult houseflies (Musca domestica)", "test": "Filter paper/sucrose bait knockdown test on adult houseflies (Test Example 7)", "conditions": "0.7 ml on filter paper with sucrose bait, after 2 hours, read-out: knockdown rate", "procedure": "as §4, with “(2), (4)” for “(2)”, “(9), (18), (21)” for “(12), (15)”, “(23),” for “(18),”, “(32)” for “(33), (37)”, “(36), (38),” for “(39),”, “(53)” for “(45)”\nas §5, with “capped. After 2 hours, the number of knockdown insects was counted to obtain a knockdown rate. The knockdown rate was calculated by the following equation.” for “capped.”\nas §3"}, "[4]": {"test_system": "last instar larvae of common house mosquitoes (Culex pipiens pallens)", "test": "Larvicidal test on common house mosquito larvae in water (Test Examples 9, 10)", "conditions": "192 h, active ingredient 3.5 ppm in water, after 8 days", "procedure": "Each of the formulations of Compounds (26) and (45) of the present invention obtained in Formulation Example 15 was diluted with water, so as to have a concentration of active ingredient of 500 ppm, to prepare a test drug solution.\n0.7 ml of the test drug solution was added to 100 ml of ion-exchanged water (a concentration of active ingredient of 3.5 ppm).\nEach of the formulations of Compounds (5), (6), (24), (27), (29), (30), (33), (38) and (47) of the present invention obtained in Formulation Example 15 was diluted with water, so as to have a concentration of active ingredient of 500 ppm, to prepare a test drug solution."}, "[5]": {"test_system": "third-instar larvae of diamondback moth (Plutella xylostella)", "test": "Cabbage foliar spray test on diamondback moth larvae (Test Example 11)", "conditions": "500 ppm spray, 20 ml/cup on cabbage, after 5 days", "procedure": "On the other hand, a cabbage was planted in a polyethylene cup and grown until the third true leaf or the fourth true leaf was developed. The test spray solution was sprayed in a ratio of 20 ml/cup on the cabbage. After the drug solution sprayed on the cabbage was dried, 10 third-instar larvae of diamondback moth (Plutella xylostella) were put on the cabbage. After 5 days, the number of diamondback moths was counted, and a controlling value was calculated by the following equation. […] Letters in the formula have the following meanings. Cb: the number of insects in an untreated section before treatment Cai: the number of insects in an untreated section on observation Tb: the number of insects in a treated section before treatment Tai: the number of insects in a treated section on observation"}}}
{"smiles": "CCCC[C@@H]1C[C@H]1/C=C/C(=O)NCC1CCOC1", "note": "(relative stereo) [Compound (19), (E)-N-(tetrahydrofuran-3-ylmethyl)-3-(trans-2′-butylcyclopropyl)-2-propenamide]", "values": [{"measurement": "knockdown rate", "setting": "[1]", "value": "≥ 90", "unit": "%"}]}
{"smiles": "CCCCCC/C(C)=C(\\F)C(=O)NCC1CCOC1", "note": "(centres unmarked) [Compound (8), (Z)—N-(tetrahydrofuran-3-ylmethyl)-2-fluoro-3-methyl-2-nonenamide]", "values": [{"measurement": "mortality at 500 ppm", "setting": "[2]", "value": "≥ 90", "unit": "%"}, {"measurement": "pest or weed control at 0.5 %", "setting": "adult houseflies", "value": "≥ 80", "unit": "%"}, {"measurement": "pest or weed control at 500 ppm", "setting": "[3]", "value": 100, "unit": "%"}]}
{"smiles": "C=CCCCCC/C=C/C(=O)NCC1CCOC1", "note": "(centres unmarked) [Compound (12), (E)-N-(tetrahydrofuran-3-ylmethyl)-deca-2,9-dienamide]", "values": [{"measurement": "mortality at 500 ppm", "setting": "[2]", "value": "≥ 90", "unit": "%"}]}
{"smiles": "CCCCCCCC/C=C/C(=O)NCC1CCOCC1", "note": "[Compound (27), (E)-N-(tetrahydropyran-4-ylmethyl)-2-undecenamide]", "values": [{"measurement": "mortality at 500 ppm", "setting": "[2]", "value": "≥ 90", "unit": "%"}, {"measurement": "pest or weed control at 500 ppm", "setting": "[3]", "value": 100, "unit": "%"}, {"measurement": "mortality at 3.5 ppm", "setting": "[4]", "value": "≥ 95", "unit": "%"}]}
{"smiles": "CCCCCC/C(C)=C(\\F)C(=O)NCC1CCOCC1", "note": "[Compound (29), (Z)—N-(tetrahydropyran-4-ylmethyl)-2-fluoro-3-methyl-2-nonenamide]", "values": [{"measurement": "mortality at 500 ppm", "setting": "[2]", "value": "≥ 90", "unit": "%"}, {"measurement": "pest or weed control at 0.5 %", "setting": "adult houseflies", "value": "≥ 80", "unit": "%"}, {"measurement": "pest or weed control at 500 ppm", "setting": "[3]", "value": 100, "unit": "%"}, {"measurement": "mortality at 3.5 ppm", "setting": "[4]", "value": "≥ 95", "unit": "%"}]}
{"smiles": "C=CCCCCC/C=C/C(=O)NCC1CCOCC1", "note": "[Compound (33), (E)-N-(tetrahydropyran-4-ylmethyl)-deca-2,9-dienamide]", "values": [{"measurement": "mortality at 500 ppm", "setting": "[2]", "value": "≥ 90", "unit": "%"}, {"measurement": "pest or weed control at 0.5 %", "setting": "adult houseflies", "value": "≥ 80", "unit": "%"}, {"measurement": "mortality at 3.5 ppm", "setting": "[4]", "value": "≥ 95", "unit": "%"}]}
{"smiles": "CCCC1CC1/C=C/C(=O)NCC1CCOCC1", "note": "(stereo not drawn) [Compound (41), (E)-N-(tetrahydropyran-4-ylmethyl)-3-(trans-2′-propylcyclopropyl)-2-propenamide]", "values": [{"measurement": "mortality at 500 ppm", "setting": "[2]", "value": "≥ 90", "unit": "%"}, {"measurement": "pest or weed control at 500 ppm", "setting": "[3]", "value": 100, "unit": "%"}]}
{"smiles": "CCCCC1CC1/C=C/C(=O)NCC1CCOCC1", "note": "(stereo not drawn) [Compound (42), (E)-N-(tetrahydropyran-4-ylmethyl)-3-(trans-2′-butylcyclopropyl)-2-propenamide]", "values": [{"measurement": "mortality at 500 ppm", "setting": "[2]", "value": "≥ 90", "unit": "%"}, {"measurement": "pest or weed control at 500 ppm", "setting": "[3]", "value": 100, "unit": "%"}]}
{"smiles": "CCCCC1C(/C=C/C(=O)NCC2CCOCC2)C1(C)C", "note": "(stereo not drawn) [Compound (43), (E)-N-(tetrahydropyran-4-ylmethyl)-3-(trans-2′-butyl-3′,3′-dimethylcyclopropyl)-2-propenamide]", "values": [{"measurement": "controlling value", "setting": "[5]", "value": 100, "unit": "%"}]}
